Assay results published in US20050100588A1, “Self-adhesive matrix plaster containing an active ingredient and based on polyurethane gels” (Beiersdorf AG, priority 2001, published 2005).

Assay: Active ingredient release of NVA to pig's skin
Assay type: in vitro ADME
Details: pig's skin, 2, 4, 6, 8 and 24 hours, FIG. 7
Method: For investigating the release characteristics, specimens on pig's skin are prepared and the release is determined quantitatively after 24 hours.
In order to investigate the release characteristics, samples on pig's skin are prepared and the release is determined quantitatively after 2, 4, 6, 8 and 24 hours. […] From this it is clear that the active ingredient is delivered in a controlled, sustained manner into the skin to develop its activity there.

CCCCCCCCC(=O)NCc1ccc(O)c(OC)c1 [NVA, Nonivamide]
quantity of NVA released in total to epidermis and dermis, course over time: uniform, linear increase
